Legend:
Test in all cases: relative viability (nuclei count vs DMSO), 5 days (fraction); higher = more cells survive
[1] = compound: CS(=O)(=O)N1CCN(Cc2cc3nc(-c4cccc5[nH]ncc45)nc(N4CCOCC4)c3s2)CC1 [Pictilisib] + CC(C)C[C@H](NC(=O)[C@H](Cc1ccccc1)NC(=O)c1cnccn1)B(O)O [Bortezomib] (partner 0.002 µM)
How it was run: (§1)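 Relative viability equals treated-well nuclei counts divided by vehicle-well nuclei counts. Counts came from 4× images of lung cancer cell lines grown in 1536-well plates for 5 days after pin-tool dosing on the day after seeding. Dosing used one drug alone or a fixed anchor-drug dose plus five library-drug doses (not always all listed) in √10 steps, and values are medians of duplicate plates.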

[2] = compound: CS(=O)(=O)N1CCN(Cc2cc3nc(-c4cccc5[nH]ncc45)nc(N4CCOCC4)c3s2)CC1 [Pictilisib] + Nc1ncn([C@H]2C[C@H](O)[C@@H](CO)O2)c(=O)n1 [Decitabine] (partner 2 µM)
How it was run: as §1

[3] = compound: NC1(c2ccc(-c3nc4ccn5c(=O)[nH]nc5c4cc3-c3ccccc3)cc2)CCC1 [MK-2206] + C[C@@H](Oc1cc(-c2cnn(C3CCNCC3)c2)cnc1N)c1c(Cl)ccc(F)c1Cl [Crizotinib] (partner 1 µM)
How it was run: as §1

[4] = compound: NC1(c2ccc(-c3nc4ccn5c(=O)[nH]nc5c4cc3-c3ccccc3)cc2)CCC1 [MK-2206] + Cc1cc(Nc2cc(N3CCN(C)CC3)nc(Sc3ccc(NC(=O)C4CC4)cc3)n2)n[nH]1 [Tozasertib] (partner 0.1 µM)
How it was run: as §1

[5] = compound: NC1(c2ccc(-c3nc4ccn5c(=O)[nH]nc5c4cc3-c3ccccc3)cc2)CCC1 [MK-2206] + Nc1ncn([C@H]2C[C@H](O)[C@@H](CO)O2)c(=O)n1 [Decitabine] (partner 2 µM)
How it was run: as §1

## UMC-11
[1]; first compound 0.02 µM
  relative viability: 0.828
[1]; first compound 0.06325 µM
  relative viability: 0.902
[1]; first compound 0.6325 µM
  relative viability: 0.78
[1]; first compound 2 µM
  relative viability: 0.768
[2]; first compound 0.02 µM
  relative viability: 0.644
[2]; first compound 0.06325 µM
  relative viability: 0.724
[2]; first compound 0.6325 µM
  relative viability: 0.566
[2]; first compound 2 µM
  relative viability: 0.519
[3]; first compound 0.01 µM
  relative viability: 0.61
[3]; first compound 0.03162 µM
  relative viability: 0.569
[3]; first compound 0.3162 µM
  relative viability: 0.603
[3]; first compound 1 µM
  relative viability: 0.707
[4]; first compound 0.01 µM
  relative viability: 0.194
[4]; first compound 0.03162 µM
  relative viability: 0.2
[4]; first compound 0.3162 µM
  relative viability: 0.214
[4]; first compound 1 µM
  relative viability: 0.192
[5]; first compound 0.01 µM
  relative viability: 0.669
[5]; first compound 0.03162 µM
  relative viability: 0.643
[5]; first compound 0.3162 µM
  relative viability: 0.569
[5]; first compound 1 µM
  relative viability: 0.716
